Measurements: BindingDB's records for PubMed 9655904 (Parke-Davis Pharmaceutical Research, 1998)

Target: Fibroblast growth factor receptor 1 (Homo sapiens, UniProt P11362)
Sequence (P11362 whole entry): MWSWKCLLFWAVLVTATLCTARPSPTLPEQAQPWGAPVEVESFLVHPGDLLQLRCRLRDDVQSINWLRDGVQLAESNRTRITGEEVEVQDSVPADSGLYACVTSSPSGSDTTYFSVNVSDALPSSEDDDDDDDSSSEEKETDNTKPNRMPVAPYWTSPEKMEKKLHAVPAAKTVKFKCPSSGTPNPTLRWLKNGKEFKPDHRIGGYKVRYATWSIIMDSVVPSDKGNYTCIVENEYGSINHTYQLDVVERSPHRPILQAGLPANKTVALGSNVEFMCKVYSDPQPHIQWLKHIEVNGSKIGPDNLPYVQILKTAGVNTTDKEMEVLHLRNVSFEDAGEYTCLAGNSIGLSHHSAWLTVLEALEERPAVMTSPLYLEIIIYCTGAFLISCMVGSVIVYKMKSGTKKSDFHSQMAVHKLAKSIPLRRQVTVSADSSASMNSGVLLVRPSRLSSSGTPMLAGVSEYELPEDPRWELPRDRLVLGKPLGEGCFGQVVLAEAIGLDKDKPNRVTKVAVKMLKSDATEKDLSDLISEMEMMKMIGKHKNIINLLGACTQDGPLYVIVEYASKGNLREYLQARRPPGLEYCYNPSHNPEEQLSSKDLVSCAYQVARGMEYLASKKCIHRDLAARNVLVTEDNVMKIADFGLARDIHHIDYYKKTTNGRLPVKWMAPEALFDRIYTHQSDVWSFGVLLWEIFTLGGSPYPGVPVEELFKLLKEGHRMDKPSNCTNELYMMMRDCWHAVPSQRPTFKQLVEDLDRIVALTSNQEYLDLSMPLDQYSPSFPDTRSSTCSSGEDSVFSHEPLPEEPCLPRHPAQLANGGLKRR

## COc1cc(OC)cc(-c2cc3cnc(N)nc3nc2NC(=O)NC(C)(C)C)c1 [6-arylpyrido[2,3-d]pyrimidine deriv. 25]
  Ki: 45.2 nM
